The test system of assay [1] is HepG2. As to the kind of experiment: Antiproliferative activity against human HepG2 cells by MTT assay. The format is functional, cell-based.
For assay [2], the system named is HeLa. As to the kind of experiment: Growth inhibition of human HeLa cells by MTT assay. The format is functional, cell-based. On the technique in general: Tetrazolium dyes change colour on reduction, which living cells bring about.
Assay [3] deals with A-375. Description: Growth inhibition of human A375 cells by MTT assay. Type of assay: functional, cell-based.
The test system of assay [4] is A549. As to the kind of experiment: Growth inhibition of human A549 cells at 330 umol/L by MTT assay relative to control. Type of assay: functional. Conditions: read-out: GI.
In assay [5] the test system is A-431. As to the kind of experiment: Growth inhibition of human A431 cells at 120 umol/L by MTT assay relative to control. Type of assay: functional. Conditions: read-out: GI.
The subject of assay [6] is SW480. As to the kind of experiment: Growth inhibition of human SW480 cells at 330 umol/L by MTT assay relative to control. The format is functional. Conditions: read-out: GI.
Assay [7] concerns PANC-1. As to the kind of experiment: Antiproliferative activity against human PANC1 cells by MTT assay. Type of assay: functional, cell-based.
Assay [8] concerns HT-29. As to the kind of experiment: Antiproliferative activity against human HT-29 cells by MTT assay. Type of assay: functional, cell-based.
Assay [9] has as its system SW480. Description: Antitumor activity against human SW480 cells xenografted in Balb/c mouse assessed as tumor growth inhibition at 30 mg/kg, ip administered 2 times per week relative to control. The format is functional. Conditions: read-out: TGI.
Assay [10] relates to HT-29. As to the kind of experiment: Growth inhibition of human HT-29 cells at 1.25 ug/ml by MTT assay relative to control. The format is functional. Conditions: read-out: GI.
The test system of assay [11] is HT-29. Description: Growth inhibition of human HT-29 cells at 2.5 ug/ml by MTT assay relative to control. Conditions: read-out: GI. Type of assay: functional.
In assay [12] the test system is HT-29. Description: Growth inhibition of human HT-29 cells at 10 ug/ml by MTT assay relative to control. The format is functional. Conditions: read-out: GI.
The test system of assay [13] is HT-29. As to the kind of experiment: Growth inhibition of human HT-29 cells at 5 ug/ml by MTT assay relative to control. Type of assay: functional. Conditions: read-out: GI.

Structures are written as SMILES.

One may read the IC50 as the concentration needed to halve the response being measured. In assay [1], `O=C(CCC[C@@H]1[C@H]2CCCN3CCC[C@@H](CN1Cc1ccccc1)[C@@H]23)OCCOCCc1no[n+]([O-])c1S(=O)(=O)c1ccccc1` showed an IC50 of 14.2 µM.

With `CCCCOC(=O)CCC[C@@H]1[C@H]2CCCN3CCC[C@@H](CN1Cc1ccccc1)[C@@H]23`, the figures for the concentration for half-maximal inhibition (IC50) in [2] and in [3] were 304 µM and 149 µM, respectively. In the case of `O=C(CCC[C@@H]1[C@H]2CCCN3CCC[C@@H](CN1Cc1ccccc1)[C@@H]23)OCCCc1no[n+]([O-])c1S(=O)(=O)c1ccccc1`, the 50% inhibitory concentration (IC50) in [1] worked out at 11.5 µM. Regarding `O=C1C[C@@H](SC(=S)N2CCCCC2)C[C@@H]2[C@H]3CCCN4CCC[C@@H](CN12)[C@@H]34`, the inhibition of growth at 330 µM in assay [4] was above 95%; in assay [6] it was above 65%. Further, the inhibition of growth at 120 µM in assay [5] is above 94%. Take `COc1ccc(/C=C2\CC[C@@H]3[C@H]4CCCN5CCC[C@@H](CN3C2=O)[C@@H]45)c(OC)c1OC`: the IC50 in [7] and in assay [8] was 13.2 µM throughout. The molecule `O=C(CCC[C@@H]1[C@H]2CCCN3CCC[C@@H](CN1Cc1ccccc1)[C@@H]23)OCCc1no[n+]([O-])c1S(=O)(=O)c1ccccc1` returned a 50% inhibitory concentration (IC50) in assay [1] of 11.4 µM.

With `COc1ccc(/C=C2\CC[C@@H]3[C@H]4CCCN5CCC[C@@H](CN3C2=O)[C@@H]45)cc1OC`, the 50% inhibitory concentration (IC50) in assay [7] and in assay [8] was 18 µM each time.

For `O=c1[nH]cc(F)c(=O)[nH]1` [FLUOROURACIL], the inhibition in vivo at 30 mg/kg in assay [9] was 63.1%. On to `CCc1c2c(nc3ccc(OC(=O)N4CCC(N5CCCCC5)CC4)cc13)-c1cc3c(c(=O)n1C2)COC(=O)[C@]3(O)CC` [IRINOTECAN], for which the inhibition of growth at 1.25 µg/mL in [10] turned out to be 22.9%. Further, the inhibition of growth at 2.5 µg/mL in assay [11] was 37.4%. Moreover, the inhibition of growth at 10 µg/mL in assay [12] is 59.3%. Also, the inhibition of growth at 5 µg/mL in assay [13] worked out at 54.7%. In assay [1], `O=C(CCC[C@@H]1[C@H]2CCCN3CCC[C@@H](CN1Cc1ccccc1)[C@@H]23)NCCc1no[n+]([O-])c1S(=O)(=O)c1ccccc1` displayed a concentration for half-maximal inhibition (IC50) of 8.02 µM. Turning to `COc1ccc(/C=C2\CC[C@@H]3[C@H]4CCCN5CCC[C@@H](CN3C2=O)[C@@H]45)cc1`, the 50% inhibitory concentration (IC50) in [7] and in assay [8] was 27.8 µM throughout. As for `COc1cc(/C=C2\CC[C@@H]3[C@H]4CCCN5CCC[C@@H](CN3C2=O)[C@@H]45)cc(OC)c1OC`, the IC50 in assay [7] and in [8] was 9.05 µM throughout.

These data come from ChEMBL document CHEMBL4325859, “Research advances on anticancer activities of matrine and its derivatives: An updated overview” (Eur J Med Chem, 2019).
